# Assay: Minimum film formation temperature (MFFT) of AquaCoat ECD-30 suspensions, MFFT-bar model 90
# Assay type: physicochemical
# Details: added at 9% by weight based on ethylcellulose solids
# Protocol: The MFFT of such suspensions was tested with MFFT-bar model 90. The MFFT bar was preset and the desired temperature range was selected depending on predicted MFFT value. Ranges 3 (5° C. to 18° C.), 4 (15° C.-33° C.) or range 5 (23° C. to 50° C.) were used in this study. The formulation was applied using a 400 micron cube applicator from warm side to cold side, and the MFFT value was read after the film was formed.
# Such compounds were added at a rate of 9% by weight (based on weight of ethylcellulose solids). The compounds evaluated were PGDL (propylene glycol dilaurate; HLB 2)), GMC (glyceryl monocaprylate, HLB 8.3), GML (glyceryl monooleate, HLB 2.8) and TGDS (triglycerol diisosterarate HLB 10-13). […] Sticky residue was found in the formulation even after mixing for extended time. The film on the MFFT bar was not smooth or transparent.
Effect on MFFT of the formulation,Molecule,Compatibility with the formulation
,"CCCCCCCC(=O)OCC(O)CO (stereo not drawn) [GMC, glyceryl monocaprylate]",didn't have good compatibility with the formulation
didn't effectively decrease the MFFT,"CCCCCCCCCCCC(=O)OCC(C)OC(=O)CCCCCCCCCCC (stereo not drawn) [PGDL, propylene glycol dilaurate]",
,triglycerol diisosterarate [TGDS],didn't have good compatibility with the formulation

# Source: patent US20230072225A1, “CONTROLLED RELEASE COMPOSITION AND METHOD” (DUPONT NUTRITION USA, INC., priority 2014, published 2023)
